Laboratory results reported in US9428503B2, “Imidazo[4,5-c]quinolin-2-one compounds and their use in treating Cancer” (AstraZeneca AB, priority 2014, dated 2016).
Where a name gives a salt, the structure may show the parent alone.

Columns and labels:
Format in all cases: cell-based
[1] = molecular target: PI3K-α (Homo sapiens, UniProt P42336); test: Assay c) PI3K cellular potency assay (phospho-Akt T308 ELISA in BT474 cells); settings: BT474 cells, phospho-Akt T308, 2 h; geometric mean where repeated; read-out: Assay c) PI3Kα Cell IC50
PI3K-α, sequence (P42336 whole entry, looked up): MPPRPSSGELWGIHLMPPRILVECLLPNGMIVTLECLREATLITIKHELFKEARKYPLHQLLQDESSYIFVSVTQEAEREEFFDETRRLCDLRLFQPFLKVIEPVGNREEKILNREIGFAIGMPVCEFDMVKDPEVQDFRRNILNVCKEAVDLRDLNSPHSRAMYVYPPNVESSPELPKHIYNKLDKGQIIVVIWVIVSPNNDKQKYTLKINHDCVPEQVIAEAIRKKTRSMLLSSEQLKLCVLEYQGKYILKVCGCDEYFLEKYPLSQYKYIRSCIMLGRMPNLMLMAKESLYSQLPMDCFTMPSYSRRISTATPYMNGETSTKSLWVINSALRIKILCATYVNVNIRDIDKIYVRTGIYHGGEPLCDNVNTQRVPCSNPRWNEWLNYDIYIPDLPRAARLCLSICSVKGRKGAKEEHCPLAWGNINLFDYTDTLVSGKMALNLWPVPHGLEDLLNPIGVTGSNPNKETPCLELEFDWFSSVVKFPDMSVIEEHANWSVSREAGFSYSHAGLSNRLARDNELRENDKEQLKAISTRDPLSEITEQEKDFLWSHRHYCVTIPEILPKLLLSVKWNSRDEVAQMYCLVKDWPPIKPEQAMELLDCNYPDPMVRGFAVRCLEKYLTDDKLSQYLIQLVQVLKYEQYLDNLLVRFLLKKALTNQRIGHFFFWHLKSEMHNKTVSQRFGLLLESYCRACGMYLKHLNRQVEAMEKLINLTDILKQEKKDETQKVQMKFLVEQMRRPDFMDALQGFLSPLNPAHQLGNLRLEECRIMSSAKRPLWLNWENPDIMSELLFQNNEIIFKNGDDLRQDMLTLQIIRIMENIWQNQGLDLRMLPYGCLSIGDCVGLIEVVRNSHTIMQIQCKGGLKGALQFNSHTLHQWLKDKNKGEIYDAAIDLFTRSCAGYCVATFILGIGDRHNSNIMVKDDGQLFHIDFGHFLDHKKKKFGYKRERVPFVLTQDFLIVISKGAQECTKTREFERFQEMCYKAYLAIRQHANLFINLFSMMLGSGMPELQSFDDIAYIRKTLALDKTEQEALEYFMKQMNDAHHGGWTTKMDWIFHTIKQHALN

[2] = molecular target: mTOR (Homo sapiens (Human), UniProt P42345); test: Assay d) mTOR cellular potency assay (phospho-AKT Ser473 in MDA-MB-468 cells); settings: MDA-MB-468 cells, phospho-AKT Ser473, 2 h; geometric mean where repeated; read-out: Assay d) mTOR Cell IC50
[3] = molecular target: ATM kinase (Homo sapiens (Human), UniProt Q13315); test: Assay a) ATM cellular potency assay (pATM Ser1981 in X-ray irradiated HT29 cells); settings: HT29 cells, pATM Ser1981 after X-ray irradiation; geometric mean where repeated; read-out: Assay a) ATM Cell IC50
[4] = molecular target: ATR kinase (Homo sapiens (Human), UniProt Q13535); test: Assay b) ATR cellular potency assay (pChk1 Ser345 in HT29 cells treated with 4NQO); settings: HT29 cells, pChk1 Ser345 after 4NQO; geometric mean where repeated; read-out: Assay b) ATR Cell IC50
ATR kinase, sequence (Q13535 whole entry): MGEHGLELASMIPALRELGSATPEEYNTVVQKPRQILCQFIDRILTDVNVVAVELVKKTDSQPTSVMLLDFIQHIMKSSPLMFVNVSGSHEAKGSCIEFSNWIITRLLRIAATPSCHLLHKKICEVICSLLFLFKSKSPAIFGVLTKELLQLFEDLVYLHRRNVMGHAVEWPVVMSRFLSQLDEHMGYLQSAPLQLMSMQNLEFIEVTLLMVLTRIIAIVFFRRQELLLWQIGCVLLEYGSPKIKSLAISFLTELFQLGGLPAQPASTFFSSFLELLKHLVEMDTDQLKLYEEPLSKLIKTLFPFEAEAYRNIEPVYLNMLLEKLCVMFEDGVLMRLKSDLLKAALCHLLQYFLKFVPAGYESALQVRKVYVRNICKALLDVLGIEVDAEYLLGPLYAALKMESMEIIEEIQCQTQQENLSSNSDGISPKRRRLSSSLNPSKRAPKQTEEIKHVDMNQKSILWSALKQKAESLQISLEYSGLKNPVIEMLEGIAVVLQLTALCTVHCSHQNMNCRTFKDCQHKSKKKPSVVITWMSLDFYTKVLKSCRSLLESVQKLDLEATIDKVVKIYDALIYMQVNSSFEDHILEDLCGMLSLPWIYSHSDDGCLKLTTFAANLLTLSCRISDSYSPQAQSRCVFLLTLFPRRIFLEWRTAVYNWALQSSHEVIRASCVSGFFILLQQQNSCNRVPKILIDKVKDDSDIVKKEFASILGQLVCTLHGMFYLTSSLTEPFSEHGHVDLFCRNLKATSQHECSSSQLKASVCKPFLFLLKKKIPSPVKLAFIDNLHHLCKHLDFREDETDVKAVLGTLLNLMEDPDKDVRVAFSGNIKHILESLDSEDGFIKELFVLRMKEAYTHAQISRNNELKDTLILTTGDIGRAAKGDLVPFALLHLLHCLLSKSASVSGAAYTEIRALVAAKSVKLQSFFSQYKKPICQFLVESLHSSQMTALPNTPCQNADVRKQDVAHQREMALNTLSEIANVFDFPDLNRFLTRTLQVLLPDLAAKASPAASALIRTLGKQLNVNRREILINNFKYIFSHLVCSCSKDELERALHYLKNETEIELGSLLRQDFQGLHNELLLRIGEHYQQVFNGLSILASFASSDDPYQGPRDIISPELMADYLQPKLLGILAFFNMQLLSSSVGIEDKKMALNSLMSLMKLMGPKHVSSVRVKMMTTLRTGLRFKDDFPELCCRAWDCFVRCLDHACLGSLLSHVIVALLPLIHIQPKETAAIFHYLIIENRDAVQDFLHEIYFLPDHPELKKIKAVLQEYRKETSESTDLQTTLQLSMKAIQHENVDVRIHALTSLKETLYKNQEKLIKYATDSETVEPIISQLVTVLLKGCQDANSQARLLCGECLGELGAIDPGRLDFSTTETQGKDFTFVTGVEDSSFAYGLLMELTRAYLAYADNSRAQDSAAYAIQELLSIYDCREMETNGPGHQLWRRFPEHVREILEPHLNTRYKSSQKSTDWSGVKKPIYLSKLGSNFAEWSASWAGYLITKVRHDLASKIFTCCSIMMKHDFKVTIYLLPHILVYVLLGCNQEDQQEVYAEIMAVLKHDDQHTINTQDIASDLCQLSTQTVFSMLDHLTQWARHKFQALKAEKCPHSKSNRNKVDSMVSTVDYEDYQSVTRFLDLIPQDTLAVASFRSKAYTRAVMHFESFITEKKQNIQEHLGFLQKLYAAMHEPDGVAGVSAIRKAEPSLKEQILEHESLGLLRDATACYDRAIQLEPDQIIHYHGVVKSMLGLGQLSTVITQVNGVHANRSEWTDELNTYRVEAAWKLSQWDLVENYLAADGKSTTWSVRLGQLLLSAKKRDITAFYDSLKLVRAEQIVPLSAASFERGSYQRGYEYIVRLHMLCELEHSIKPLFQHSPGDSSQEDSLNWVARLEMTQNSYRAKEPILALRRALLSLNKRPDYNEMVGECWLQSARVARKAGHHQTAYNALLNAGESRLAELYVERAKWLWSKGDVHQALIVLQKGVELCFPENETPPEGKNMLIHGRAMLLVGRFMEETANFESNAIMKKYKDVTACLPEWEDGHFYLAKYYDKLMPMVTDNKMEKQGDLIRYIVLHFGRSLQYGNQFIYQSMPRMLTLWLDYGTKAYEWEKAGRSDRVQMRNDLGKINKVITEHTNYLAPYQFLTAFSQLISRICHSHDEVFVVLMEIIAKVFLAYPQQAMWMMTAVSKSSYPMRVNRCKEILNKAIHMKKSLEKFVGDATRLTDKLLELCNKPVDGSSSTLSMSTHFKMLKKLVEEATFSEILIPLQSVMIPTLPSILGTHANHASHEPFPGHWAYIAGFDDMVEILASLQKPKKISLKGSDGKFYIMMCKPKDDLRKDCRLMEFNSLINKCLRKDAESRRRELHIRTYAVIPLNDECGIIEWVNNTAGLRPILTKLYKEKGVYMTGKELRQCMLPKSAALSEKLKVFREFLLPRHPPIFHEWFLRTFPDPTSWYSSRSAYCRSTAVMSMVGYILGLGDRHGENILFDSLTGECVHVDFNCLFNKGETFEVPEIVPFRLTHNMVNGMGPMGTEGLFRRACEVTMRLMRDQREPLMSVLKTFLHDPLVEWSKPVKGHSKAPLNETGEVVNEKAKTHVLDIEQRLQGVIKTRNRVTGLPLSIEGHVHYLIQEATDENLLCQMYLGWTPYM
ATR kinase, sequence (Q8WXE1 whole entry partner): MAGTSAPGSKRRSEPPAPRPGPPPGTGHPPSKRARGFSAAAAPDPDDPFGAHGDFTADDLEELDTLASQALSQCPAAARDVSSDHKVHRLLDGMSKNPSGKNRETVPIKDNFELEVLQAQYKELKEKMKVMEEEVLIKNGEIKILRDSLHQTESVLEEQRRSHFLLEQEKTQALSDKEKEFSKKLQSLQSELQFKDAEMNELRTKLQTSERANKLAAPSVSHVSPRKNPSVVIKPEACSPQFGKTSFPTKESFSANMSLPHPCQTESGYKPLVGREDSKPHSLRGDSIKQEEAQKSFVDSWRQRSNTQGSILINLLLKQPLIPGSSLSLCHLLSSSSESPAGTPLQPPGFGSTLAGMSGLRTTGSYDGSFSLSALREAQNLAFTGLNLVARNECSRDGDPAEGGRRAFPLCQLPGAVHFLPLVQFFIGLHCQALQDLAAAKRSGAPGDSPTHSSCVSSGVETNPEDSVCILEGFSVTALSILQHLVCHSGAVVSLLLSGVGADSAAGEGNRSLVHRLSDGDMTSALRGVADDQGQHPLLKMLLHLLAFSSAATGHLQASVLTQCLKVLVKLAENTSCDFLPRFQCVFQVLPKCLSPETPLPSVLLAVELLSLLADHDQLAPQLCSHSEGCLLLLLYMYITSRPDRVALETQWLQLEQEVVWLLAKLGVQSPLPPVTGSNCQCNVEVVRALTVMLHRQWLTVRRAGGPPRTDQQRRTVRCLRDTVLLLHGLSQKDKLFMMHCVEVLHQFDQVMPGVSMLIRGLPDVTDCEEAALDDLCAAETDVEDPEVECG

SMILES | IC50 [1] [nM] | IC50 [2] [µM] | IC50 [3] [nM] | IC50 [4] [µM]
Cn1c(=O)n([C@H]2CCCOC2)c2c3cc(-c4ccc(OCCCN5CCCCC5)nc4)ccc3ncc21 [Example 31, 3-methyl-1-[(3S)-oxan-3-yl]-8-[6-(3-piperidin-1-ylpropoxy)pyridin-3-yl]imidazo[5,4-c]quinolin-2-one] | > 10900 | 19.5 | 1.09 | > 30
CO[C@H]1C[C@@H](n2c(=O)n(C)c3cnc4cc(F)c(-c5ccc(OCCCN(C)C)nc5)cc4c32)C1 [Example 6, 8-[6-(3-dimethylaminopropoxy)pyridin-3-yl]-7-fluoro-1-(cis-3-methoxycyclobutyl)-3-methylimidazo[4,5-c]quinolin-2-one] | > 30000 | > 16.9 | 1.05 | > 30
Cn1c(=O)n(C2CCC2)c2c3cc(-c4ccc(OCCCN5CCCCC5)nc4)ccc3ncc21 [Example 57, 1-cyclobutyl-3-methyl-8-[6-[3-(1-piperidyl)propoxy]-3-pyridyl]imidazo[4,5-c]quinolin-2-one trifluoroacetic acid salt] | > 14300 | 5.77 | 0.434 | > 30
Cn1c(=O)n([C@H]2CCCOC2)c2c3cc(-c4ccc(OCCCN5CCCCC5)nc4)c(F)cc3ncc21 [Example 47, 7-Fluoro-3-methyl-8-[6-[3-(1-piperidyl)propoxy]-3-pyridyl]-1-[(3S)-tetrahydropyran-3-yl]imidazo[4,5-c]quinolin-2-one methanesulfonic acid salt] | > 23500 | > 30 | 0.799 | > 30
CN(C)CCCOc1ccc(-c2cc3c(cc2F)ncc2c3n(C3CCOCC3)c(=O)n2C)cn1 [Example 8, 8-[6-(3-dimethylaminopropoxy)pyridin-3-yl]-7-fluoro-3-methyl-1-(oxan-4-yl)imidazo[5,4-c]quinolin-2-one] | 18100 | 14 | 0.782 | > 30
Cn1c(=O)n(C2COC2)c2c3cc(-c4ccc(OCCCN5CCCCC5)nc4)ccc3ncc21 [Example 56, 3-methyl-1-(oxetan-3-yl)-8-[6-[3-(1-piperdyl)propoxy]-3-pyridyl]imidazo[4,5-c]quinolin-2-one trifluoroacetic acid salt] | > 26300 | 12.4 | 3.02 | > 30
Cn1c(=O)n(C2CCC2)c2c3cc(-c4ccc(OCCCN5CCCC5)nc4)ccc3ncc21 [Example 58, 1-cyclobutyl-3-methyl-8-[6-(3-pyrrolidin-1-ylpropoxy)-3-pyridyl]imidazo[4,5-c]quinolin-2-one] | > 9560 | 7.29 | 0.31 | > 28.1
CO[C@H]1CC[C@H](n2c(=O)n(C)c3cnc4ccc(-c5ccc(OCCCN6CCCCC6)nc5)cc4c32)C1 [Example 65, 1-[(1S,3S)-3-Methoxycyclopentyl]-3-methyl-8-[6-[3-(1-piperidyl)propoxy]-3-pyridyl]imidazo[4,5-c]quinolin-2-one] | 1840 | 6.34 | 0.22 | > 26.6

Now those with a lower IC50 [1], led by results:

IC50 [1] [nM] | IC50 [2] [µM] | IC50 [3] [nM] | IC50 [4] [µM] | SMILES
1050 | 1.19 | 0.315 | > 20.7 | CO[C@@H]1CC[C@@H](n2c(=O)n(C)c3cnc4ccc(-c5ccc(OCCCN(C)C)nc5)cc4c32)C1 [Example 25, 8-[6-(3-Dimethylaminopropoxy)pyridin-3-yl]-1-[(1R,3R)-3-methoxycyclopentyl]-3-methylimidazo[4,5-c]quinolin-2-one]
828 | 1.27 | 1.33 | 10.7 | Cn1c(=O)n(C2CCOCC2)c2c3cc(-c4ccc(OCCCN5CCC5)nc4)ccc3ncc21 [Example 39, 8-[6-[3-(azetidin-1-yl)propoxy]pyridin-3-yl]-3-methyl-1-(oxan-4-yl)imidazo[5,4-c]quinolin-2-one]
729 | 2.24 | 0.292 | > 24.4 | CO[C@H]1C[C@@H](n2c(=O)n(C)c3cnc4ccc(-c5ccc(OCCCN6CCC6)nc5)cc4c32)C1 [Example 38, 8-[6-[3-(azetidin-1-yl)propoxy]pyridin-3-yl]-1-(cis-3-methoxycyclobutyl)-3-methylimidazo[4,5-c]quinolin-2-one]
499 | 1.36 | 0.765 | > 24 | Cn1c(=O)n(C2CCCOC2)c2c3cc(-c4ccc(OCCCN5CCC5)nc4)ccc3ncc21 (stereo in doubt) [Example 60, 8-[6-[3-(azetidin-1-yl)propoxy]-3-pyridyl]-3-methyl-1-[(3S)-tetrahydropyran-3-yl]imidazo[4,5-c]quinolin-2-one]
321 | 0.214 | 0.249 | 4.37 | CNCCCOc1ccc(-c2ccc3ncc4c(c3c2)n([C@H]2C[C@@H](OC)C2)c(=O)n4C)cn1 [Example 42, 1-(cis-3-methoxycyclobutyl)-3-methyl-8-[6-(3-methylaminopropoxy)pyridin-3-yl]imidazo[4,5-c]quinolin-2-one]
267 | 0.395 | 0.555 | 3.94 | CNCCCOc1ccc(-c2ccc3ncc4c(c3c2)n([C@H]2CCCOC2)c(=O)n4C)cn1 [Example 41, 3-methyl-8-[6-(3-methylaminopropoxy)pyridin-3-yl]-1-[(3S)-oxan-3-yl]imidazo[5,4-c]quinolin-2-one]
